System: Human urothelial T24 cells
Test: WST-1 cell viability assay, 4-HC-induced loss of T24 viability
Format: cell-based
Settings: 37.5 μM 4-HC for 4 h, WST-1 assay, n=3
Procedure: FIGS. 2A to 2D illustrate the CeNPs testing with human urothelial T24 cells in vitro. FIG. 2A illustrates that T24 cells were treated with 4-HC at concentrations of 0, 12.5, 25, 37.5, 50, 75, and 100 μM for 4 h (hours). Cell viability was examined utilizing the WST-1 assay (MK400, Takara, Mountain View, CA, USA).
FIG. 2B illustrates that 4-HC-induced loss of T24 viability was rescued by cerium oxide nanoparticle (CeNP) treatment (n=3). […] Fluorescence microscope images of the groups: (1) control group; (2) only 4-HC group: 37.5 μM 4-HC added for 4 h to induce cell oxidative stress; (3) CeNP treatment group: 5 μg/mL CeNPs were applied for 24 h before 4-h induction with 37.5 μM 4-HC; and (4) CeNP-only group: only 5 μg/mL CeNPs were applied for 24 h. […] Values are expressed as the mean±SD. Data were analyzed by one-way analysis of variance with Tukey's multiple comparisons test. *P<0.05, **P<0.01. n.s.: no statistical difference, (n=3).
Human urothelial T24 cells (#60062, BCRC, Taiwan) were cultured in 90% McCoy's 5a medium (Sigma, St. Louis, MO, USA) with 1.5 mM L-glutamine, 10% (v/v) fetal bovine serum, and 1% (v/v) PS. Cells were maintained at 37° C. in a humidified incubator containing 5% CO2 [6], and 4-HC was used to induce cellular oxidative stress. T24 cells were seeded into a 96-well plate at a density of 10^4 cells/well and incubated for 24 h until full adhesion was achieved. […]

O=P1(N(CCCl)CCCl)NC(OO)CCO1 (stereo not shown) [4-HC, 4-hydroperoxycyclophosphamide]
cell viability of T24 cells: approximately 50%

Reference: patent publication US12521414B2, “Method for preventing or treating urological chronic pelvic pain syndrome” (priority 2022, dated 2026)
